Test results as given in patent US20020155117A1, “METHOD FOR DETECTING ORGAN ALLOGRAFT REJECTION AND USES THEREOF” (priority 1996, published 2002).
Ends that are not written are not given here.

Key:
Type in all cases: cell-based, human
[1] = test system: PBMC from a responder (LZ), expressing HLA-DR β1*1101/1201; test: In vitro immunization of PBMC from responder LZ with DR1 peptides (blastogenesis with autologous APCs); settings: peptide 5 μg/ml
Procedure: Development of Allo-peptide Specific T Cell Lines for Epitope Mapping. PBMCs (at 10^6/ml) from a healthy person ([…]) with HLA-DRβ1*1101/1201 genotype were primed in individual cultures (Liu et al., 1992) with each or the following seven DR1 peptides(5 μg/ml) spanning the first domain of the Drβ1*0101 chain:
(§1) T cells were grown in 24 well plates (Nunc, Inc., Naperville, Ill.) in RPM1 1640 medium supplemented with 10% human AB serum, […] L-glutamine, and 50 μg/ml gentamicin (Gibco, Grand Island, N.Y.). On day 10, rIL-2 was added at 5 μ/ml. Fourteen days after priming, T cells were collected, washed and restimulated at 10^6/ml with antigen, in culture medium containing rIL-2 (20 u/ml) and irradiated (3000 rad) autologous PBMCs (2×10^6/ml). Following three stimulations, two TCLs, named LZ-anti-pp1-20 and LZ-anti-pp21-42, were obtained.
To monitor indirect recognition in allograft recipients, a determination was made as to whether T cell recognize one or more peptides resulting from the processing of an allogeneic MHC molecule by responder APCs. For this, in vitro PBMC were immunized from a responder (LZ), expressing HLA-DR β1*1101/1201, with seven partially overlapping peptides corresponding to the first domain of the Drβ1*0101 molecule. […] The resulting T cell lines were tested for their ability to recognize native rDR1 molecule at various protein concentrations.

TCL LZ-anti-pp 1-20 = test: Proliferation assay of TCL LZ-anti-pp 1-20
Procedure: (§2) FIGS. 1A and 1B. Reactivity of TCLs to the immunizing peptides and to r DR1 proteins. The TCL LZ-anti-pp 1-20 […] and TCL LZ-anti-pp 21-42 […] were tested for reactivity to various concentrations of rDR1 protein and pp 1-20 pr pp 21-42 using 2×10^4 responding cells and 5×10^4 irradiated autologous APCs per well. Cultures were labeled after 48 hours and harvested 18 hours later. Results are expressed as mean cpm of triplicate cultures. The standard deviation of measure was less than 10%.
FIGS. 2A and 2B. HLA-DR restriction of peptide recognition by TCLs. The TCL LZ-anti-pp 1-20 (FIG. 2A) and TCL LZ-anti-pp 21-42 (FIG. 2B) were stimulated with […] peptide (pp 1-20 for LZ-anti-pp 1-20 and pp 21-42 for LZ-anti-pp 21-42) in the presence of autologous and allogeneic APCs sharing with the responder one or no DR antigen. Assays were done as described in the description of FIGS. 1A and 1B. […]
Responding T cells (2×10^4/well) were cultured with irradiated APCs of responder or stimulator origin (5×10^4/well) in round bottom microtiter plates (Nunc Inc., Naperville, Ill.). […] [^3H] thymidine incorporation was measured in an LK Betaplate liquid scintillation counter (Wallace, Inc., Gaithersburg, Md.). Mean cpm in triplicate cultures and standard deviation of the mean were calculated.

TCL-PR = test: Proliferative response of TCL-PR to DR4 peptide
Text: The identification of the core epitope of the DR4/69-88 peptide has been accomplished. […] The peptide KRAAVDTYCRHNYG carries the expected anchor residues required by the peptide binding motif of the DTRβ1*1101 restriction molecule (i+7) as well as the TCR contact residues involved in the stimulation of TCL-PR.
The objective of these studies is to establish whether high doses of dominant peptide are tolerogenic. To increase resistance against enzymatic degradation D-Lysine is placed at the N-terminus and the C-terminus is amidated. We have established that the optimal dose of the dominant peptide (4/71-84) required for inducing maximal proliferation of TCR-PR is 5 μg/ml or approximately 5×10^−7M. Increasing concentration of peptide 4/71-84 (ranging from 10^−8 to 10^−4M) may be used to determine the dose required to reduce proliferation to the background values observed in cultures with APCs and no peptide. The viability of the cells will be assayed and physiological studies will be performed to determine whether the lack of proliferation results from the induction of enery of apoptosis.

TCL LZ-anti-pp 21-42 = test: Proliferation assay of TCL LZ-anti-pp 21-42; design: stimulation of TCL anti-pp 21-42 by overlapping 14-mer peptides: dose or concentration left out as unconfirmed
Procedure: as §2
FIGS. 2A and 2B. HLA-DR restriction of peptide recognition by TCLs. The TCL LZ-anti-pp 1-20 (FIG. 2A) and TCL LZ-anti-pp 21-42 (FIG. 2B) were stimulated with […] peptide (pp 1-20 for LZ-anti-pp 1-20 and pp 21-42 for LZ-anti-pp 21-42) in the presence of autologous and allogeneic APCs sharing with the responder one or no DR antigen. Assays were done as described in the description of FIGS. 1A and 1B.
FIG. 3. Determination of the core epitope of the dominant determinant of DR1 molecule. TCL LZ-anti-pp 21-42 was stimulated in individual cultures with nine overlapping 14-mer peptides ([…]) moving along residues 21-42 in single residue steps. The reactions were set up as described in the description of FIGS. 1A and 1B.
FIG. 4. Suppression of TCL reactivity by high concentrations of antigen. The proliferative response of TCL LZ-anti-pp 21-42 was tested as described in the description of FIGS. 1A and 1B using different concentrations of pp 22-35. The response was abolished at a concentration […].
as §1
Responding T cells (2×10^4/well) were cultured with irradiated APCs of responder or stimulator origin (5×10^4/well) in round bottom microtiter plates (Nunc Inc., Naperville, Ill.). Antigens were added to the cultures at the concentrations indicated. [^3H] thymidine (1 μCi/well) was added after 48 hours, and the cultures were harvested 18 hours later. [^3H] thymidine incorporation was measured in an LK Betaplate liquid scintillation counter (Wallace, Inc., Gaithersburg, Md.). Mean cpm in triplicate cultures and standard deviation of the mean were calculated.
The immune response of mature T cells can paradoxically be suppressed by high doses of antigen (Suzuki et al., 1988; and Critchfield et al, 1994). The possibility of suppressing indirect allorecognition was explored by testing the reactivity of TCL LZ-anti-pp 21-42 to increasing concentrations of pp 22-35 in the presence of autologous APC. The reactivity of the line started to decline when the concentration of the peptide was increased above 3 μM (FIG. 4).
(§3) T cells cultured with 27 μM of pp 22-35 lost viability (>90% Preputium iodide positive) within 72 hours, while T cells grown with high concentration of the irrelevant peptide alone were unaffected

[2] = test system: TCL LZ-anti-pp 21-42 T cells; test: Viability of T cells cultured with high peptide concentration (Preputium iodide); settings: high concentration of the irrelevant peptide alone
Procedure: as §3

[3] = test system: IL-2 expanded PBMCs of DR11 positive heart allograft recipients; test: Limiting dilution analysis (LDA) of Th frequency in the periphery, Example 1; settings: for T helper cell frequency, circulation: + self PBMC
Procedure: FIG. 6. Suppression of in vivo activated T cells by high doses of antigen. PBMCs obtained from patient […] on day 55 were expanded in IL-2 for 14 days and then tested in LDA (limiting dilution analysis) for reactivity to pp 22-35 at concentrations of […] in the presence of autologous APCs.
The LDA study of Th frequency in the periphery was performed using the method described by Zhang et al. (Zhang et al., 1994) with some modifications. PBMCs were plated at 2×10^4, 1×10^4 and 5×10^3 cells per well (24 wells for each concentration) in 0.1 ml medium containing 40 U/ml of rIL-2. On day 7, 0.1 ml fresh medium with rIL-2 was added to each well. After 14 days, each culture was split into 3 aliquots: one was cultured with autologous (patient) irradiated PBMC (5×10^4/well), the second with autologous PBMC plus pp 22-35, and the third with donor spleen cells (5×10^4/well). The cultures were pulsed with [^3H] thymidine ([…]) after 48 hours and harvested 18 hours later.
To establish whether the reactivity of in vivo activated T cells to peptide 22-35 can be suppressed by high concentrations of antigen the following experiment was performed: PBMC from […] were cultured for 14 days at different cell concentrations in medium with IL-2. Cultures were then tested in the presence of autologous APCs for reactivity to pp 22-35 at concentrations of 1 μM and 15 μM. At 1 μM of antigen there were 8×10^−6 reactive T cells while at 15 μM there was no reactivity (FIG. 6).

[4] = test system: T cells infiltrating the graft; test: Limiting dilution analysis of Th frequency among lymphocytes infiltrating the graft, Example 1; settings: patient three, + self PBMC
Text: Biopsy tissue was washed twice with medium supplemented with 5 u/ml rIL-2. Cell growth was checked everyday. The medium was changed twice a week. T cells infiltrating the graft were further expanded in medium with rIL-2 for 7-14 days. When the cell number reached 1×10^6, they were harvested and plated at 400, 200 and 100 cells per well in the presence of autologous PBMC (5×10^4/per well) in 24 replicate cultures. Cultures were maintained and assayed for reactivity as described above. The precursor frequency of Th cells recognizing pp 22-35 and donor spleen cells was analyzed by Poisson statistics (Liu et al., 1992; and Zhang et al., 1994).

GDTRPRFLWQLKFECHFFNG (GDTRPRFLWQLKFECHFFNG) [pp 1-20, residues 1-20 of Drβ1*0101 chain]
blastogenesis after in vitro immunization of PBMC [1]: elicited blastogenesis | reactivity of TCL LZ-anti-pp 1-20 (TCL LZ-anti-pp 1-20; autologous APCs, various concentrations, FIG. 1): stimulated strongly | HLA-DR restriction of peptide recognition by TCL anti-pp 1-20 (TCL LZ-anti-pp 1-20; autologous and allogeneic APCs, FIG. 2A): only when presented by APCs carrying the Drβ1*1101 allele

K R A A V D T Y C R H N Y G (KRAAVDTYCRHNYG) [4/71-84]
optimal dose required for inducing maximal proliferation of TCR-PR (TCL-PR): 5 μg/ml and approximately 5×10^−7 M | potency in stimulating the proliferative response of TCL-PR (core epitope of DR4/69-88) (TCL-PR): most potent

TERVRLLERCIYNQEESVREDS (TERVRLLERCIYNQEESVREDS) [pp 21-42, residues 21-42 of Drβ1*0101 chain]
blastogenesis after in vitro immunization of PBMC [1]: elicited blastogenesis | reactivity of TCL LZ-anti-pp 21-42 (TCL LZ-anti-pp 21-42; autologous APCs, various concentrations, FIG. 1B): reacted vigorously | HLA-DR restriction of peptide recognition by TCL anti-pp 21-42 (TCL LZ-anti-pp 21-42; autologous and allogeneic APCs, FIG. 2B): only when presented by APCs carrying the Drβ1*1101 allele

K G N N D E S N I S F K E K D (KGNNDESNISFKEKD) [NDA4-derived peptide, irrelevant synthetic peptide corresponding to the N-terminus of the NDA4 molecule, reference compound]
TCL-ZL response to pp 22-35 in the presence of irrelevant peptide (TCL LZ-anti-pp 21-42; pp 22-35 at plus NDA4-derived peptide at 30-50 μM): 15-17×10^3 cpm | viability of T cells grown with peptide alone [2]: unaffected

ERVRLLERCIYNQE [pp 22-35, ERVRLLERCIYNQE]
peptide concentration at which the proliferative response was abolished (TCL LZ-anti-pp 21-42; FIG. 4 legend): 27 µM | peptide concentration above which reactivity of the line started to decline (TCL LZ-anti-pp 21-42; autologous APC, FIG. 4): above 3 μM | peptide concentration for complete suppression of TCL reactivity (TCL LZ-anti-pp 21-42; autologous APC, FIG. 4): 27 µM | stimulation of TCL anti-pp 21-42 by overlapping 14-mer peptides (TCL LZ-anti-pp 21-42; autologous APCs, FIG. 3): stimulated strongly | TCL-ZL response to pp 22-35 (TCL LZ-anti-pp 21-42; pp 22-35): 17×10^3 cpm | reactive T cells in LDA at low antigen concentration ([3]; patient PBMC (day 55), 1 μM of antigen, autologous APCs, FIG. 6): 8×10^−6 | reactive T cells in LDA at high antigen concentration ([3]; patient PBMC (day 55), 15 μM of antigen, autologous APCs, FIG. 6): no reactivity | T helper cell frequency, circulation ([3]; patient one, 1 Mo after transplantation): 0 | T helper cell frequency, circulation ([3]; patient one, 12 Mo after transplantation (chronic rejection)): 6×10^−6 | T helper cell frequency, circulation ([3]; patient one, 12 Mo after transplantation (chronic rejection), listed as pp22-35): 6.0 × 10^−6 | T helper cell frequency, circulation ([3]; patient three, 27 d after transplantation): 0 | T helper cell frequency, circulation ([3]; patient three, 41 d after transplantation): 7.4×10^−6 | T helper cell frequency, circulation ([3]; patient three, 41 d after transplantation, listed as pp22-35): 7.4 × 10^−6 | T helper cell frequency, circulation ([3]; patient three, 55 d after transplantation (acute rejection), listed as pp22-35): 8.0 × 10^−6 | T helper cell frequency, circulation ([3]; patient three, 55 d after transplantation (acute rejection), listed as pp-22-35): 8×10^−6 | T helper cell frequency, circulation ([3]; patient three, 82 d after transplantation (acute rejection), listed as pp22-35): 6.5 × 10^−6 | T helper cell frequency, circulation ([3]; patient three, 82 d after transplantation (acute rejection), listed as pp-22-35): 6.5e-06 | T helper cell frequency, circulation ([3]; patient two, 12 Mo after transplantation): failed to react | T helper cell frequency, circulation ([3]; patient two, 12 Mo after transplantation, listed as pp22-35): 0 | T helper cell frequency, graft ([4]; 55 d biopsy): 4.3×10^−4 | T helper cell frequency, graft ([4]; 55 d biopsy, listed as pp22-35): 4.3 × 10^−4 | T helper cell frequency, graft ([4]; 82 d biopsy): 3.3×10^−4 | T helper cell frequency, graft ([4]; 82 d biopsy, listed as pp22-35): 3.3 × 10^−4
